From patent US9206229B2, “Bortezomib esters and formulations thereof” (CHEMI S.P.A., priority 2012, dated 2015)
Where two headings read alike, the source gives them in different places.

What was measured:
[1] = Stability tests of (5+5) bis bortezomib tartrate III in solid form (HPLC purity); type: physicochemical
Experimental: (5+5) Bis-bortezomib tartrate III, prepared as described in example 2, and the solid formulations containing (5+5) bis-bortezomib tartrate III, prepared as described in examples 3 and 4, were put into glass vials with screw plug and hermetic closure and undergone stability tests under the following conditions: […]
temperature 25° C. and 60% relative humidity temperature 40° C. and 75% relative humidity
The HPLC method used for the purity analysis was the following:
• UV Detector: SPD 10AVP • auto-sampler: SIL-ADVP Wavelength: 270 nm Column: Biobasic-18-Peek Bio-inert • length: 250 mm • I.D.: 2.1 mm • Particle size: 5 μm • (thermo scientific Cat.N.72105-252168 or equivalent) Injection: 3 μl Column temperature: room Sampler temperature: room Flow rate: 0.3 ml/min Mobile phase: eluent A: 95% gradient • Eluent B: 5% Analysis time: 60 minutes Eluent A: 0.1% v/v formic acid in water for HPLC Eluent B: 0.1% v/v formic acid in acetonitrile for gradient Diluent: acetonitrile:water for HPLC=80:20 Blank: diluent Gradient program:
Weigh about 50 mg sample and transfer the substance into a 100 ml flask. Dissolve and bring to volume with diluent. Sonicate up to complete dissolution (analyte content about 0.5 mg/ml).
Calculate the percentage of each known and unknown impurity as percentage area by using the following formula (peaks of the blank and peaks with area <0.05% to be ignored).
[formula] Axc: peak area of the impurity in the sample Atot: total area of the peaks of the chromatogram Purity(A%)=100−Σ1Imp (i) The peak corresponding to bortezomib is eluted at 28 minutes±2.
In the following tables the data obtained from the stability tests after two and four weeks are reported.

[2] = Stability tests of powders stored at 40° C. for months (examples 12, 14, 17), HPLC purity; type: physicochemical; details: powder
Experimental: Samples of the powder obtained in example 11 were stored in glass vials with screw cap and hermetic closure and undergone stability tests at 40° C. and 75% relative humidity. Their purity was checked during the time. In the following table the purity data of the samples under stability test obtained by using the HPLC method described in example 9 are reported.
Samples of the powder obtained in example 13 were stored in glass vials with screw cap and hermetic closure and undergone stability tests at 40° C. and 75% relative humidity. In the following table the purity data obtained by using the HPLC method described in example 9 are reported.
In the following table the data of the HPLC purity analysis of the powder at time 0 and after 1 month, 2 months and 3 months of storage in glass vials with screw plug and hermetic closure at 40° C. are reported.

[3] = cited from earlier work
[4] = 2 weeks 25° C., 60% relative humidity
[5] = 2 weeks 40° C., 75% relative humidity
[6] = 2 months 40° C. (75% relative humidity stated in examples 12, 14)
[7] = 3 months 40° C. (75% relative humidity stated in examples 12, 14)
[8] = 1 month 40° C. (75% relative humidity stated in examples 12, 14)

HPLC peak area, relative retention time 0.87 (retention time 23.58 min) [2, 6] | HPLC peak area, relative retention time 1.037 (retention time 28.00 min) [2, 6] | HPLC peak area, relative retention time 1.07 (retention time 28.77 min) [2, 6] | HPLC purity, peak at relative retention time 1.00 (retention time 27.00 min) [2, 6] | HPLC peak area, relative retention time 0.87 (retention time 23.58 min) [2, 7] | HPLC peak area, relative retention time 0.95 (retention time 25.78 min) [2, 7] | HPLC peak area, relative retention time 1.037 (retention time 28.00 min) [2, 7] | HPLC purity, peak at relative retention time 1.00 (retention time 27.00 min) [2, 7] | HPLC peak area, relative retention time 1.037 (retention time 28.00 min) ([2]; t0) | HPLC purity, peak at relative retention time 1.00 (retention time 27.00 min) ([2]; t0) | Compound | also measured
– | – | – | – | – | – | – | – | – | – | CC(C)C[C@H](NC(=O)C(Cc1ccccc1)NC(=O)c1cnccn1)B1OC(=O)C(C2OB([C@H](CC(C)C)NC(=O)C(Cc3ccccc3)NC(=O)c3cnccn3)OC2=O)O1 (stereo partly drawn) [Example 2, (5+5) Bis-Bortezomib L-Tartrate III] | HPLC peak area, relative retention time 0.91 (retention time 24.57 min) [1, 4]: 0.02 A%; HPLC peak area, relative retention time 0.95 (retention time 25.78 min) [1, 4]: 0.02 A%; HPLC peak area, relative retention time 1.07 (retention time 28.77 min) [1, 4]: 0.01 A%; HPLC purity, peak at relative retention time 1.00 (retention time 27.00 min) [1, 4]: 99.94 A%; HPLC peak area, relative retention time 0.95 (retention time 25.78 min) [1, 5]: 0.18 A%; HPLC peak area, relative retention time 1.07 (retention time 28.77 min) [1, 5]: 0.01 A%; HPLC purity, peak at relative retention time 1.00 (retention time 27.00 min) [1, 5]: 99.82 A%; HPLC peak area, relative retention time 0.91 (retention time 24.57 min) ([1]; t0): 0.02 A%; HPLC peak area, relative retention time 0.95 (retention time 25.78 min) ([1]; t0): 0.07 A%; HPLC peak area, relative retention time 1.07 (retention time 28.77 min) ([1]; t0): 0.01 A%; HPLC purity, peak at relative retention time 1.00 (retention time 27.00 min) ([1]; t0): 99.90 A%
0.15 A% | 0.02 A% | 0.04 A% | 99.67 A% | 0.66 A% | 0.07 A% | 0.38 A% | 98.72 A% | 0.01 A% | 99.99 A% | CC(C)C[C@H](NC(=O)C(Cc1ccccc1)NC(=O)c1cnccn1)B1OC(=O)C(C2OB([C@H](CC(C)C)NC(=O)C(Cc3ccccc3)NC(=O)c3cnccn3)OC2=O)O1 (stereo partly drawn) [Example 11, (5+5) Bis Bortezomib L-Tartrate III] | HPLC peak area, relative retention time 1.07 (retention time 28.77 min) [2, 7]: 0.18 A%
0.61 A% | 0.34 A% | 0.13 A% | 98.85 A% | 0.07 A% | 0.04 A% | 0.02 A% | 99.85 A% | 0.02 A% | 99.94 A% | CC(C)C[C@H](NC(=O)[C@H](Cc1ccccc1)NC(=O)c1cnccn1)B1OC(=O)[C@@H]([C@H]2OB([C@H](CC(C)C)NC(=O)[C@H](Cc3ccccc3)NC(=O)c3cnccn3)OC2=O)O1 [Example 13, (5+5) Bis Bortezomib L-Tartrate III] | HPLC peak area, relative retention time 0.87 (retention time 23.58 min) [2, 8]: 0.05 A%; HPLC peak area, relative retention time 1.037 (retention time 28.00 min) [2, 8]: 0.02 A%; HPLC purity, peak at relative retention time 1.00 (retention time 27.00 min) [2, 8]: 99.93 A%; HPLC peak area, relative retention time 0.95 (retention time 25.78 min) [2, 6]: 0.07 A%; HPLC peak area, relative retention time 0.87 (retention time 23.58 min) ([2]; t0): 0.02 A%
– | – | – | – | – | – | – | – | – | – | CC(C)C[C@H](NC(=O)[C@H](Cc1ccccc1)NC(=O)c1cnccn1)B(O)O [bortezomib] | time for which stable on storage ([3]; stored at 2-8° C.): 3-6 months; HPLC purity ([3]; stored at −20° C. for more than 2 years): > 97%; time for which stable on storage ([3]; stored at −20° C.): more than 2 years
